Experimental findings from ChEMBL document CHEMBL3286249 (Eur J Med Chem, 2014) are described below.

SMILES strings stand for the structures.

For the first assay, the target named is Carbonic anhydrase 2 (Homo sapiens, UniProt P00918).
Usually Ki stands for the equilibrium dissociation constant of an inhibitor or competing ligand from its target. `Cc1nnc(-c2cc(S(N)(=O)=O)c(Cl)cc2Cl)o1` had a Ki of 8.7 nM.

The next assay addresses Carbonic anhydrase 9 (Homo sapiens, UniProt Q16790).
Regarding `NS(=O)(=O)c1cc(-c2nnc(-c3ccccc3)[nH]2)c(Cl)cc1Cl`, the inhibitory constant (Ki) amounted to 9.7 nM. This lies in the single-digit nanomolar range.

Take `NS(=O)(=O)c1cc(-c2nnc(Nc3ccccc3)o2)c(Cl)cc1Cl`: the affinity, expressed as Ki, was 13.8 nM.

`NS(=O)(=O)c1cc(-c2nnc(Nc3ccc(Cl)cc3)o2)c(Cl)cc1Cl` came in with an inhibitory constant (Ki) of 15.1 nM.

`NS(=O)(=O)c1cc(-c2nnc(-c3ccccc3)o2)c(Cl)cc1Cl`: the Ki amounted to 13.2 nM.

On to `NS(=O)(=O)c1cc(-c2nnc(-c3ccc(Cl)cc3)o2)c(Cl)cc1Cl`, for which affinity was put at a Ki of 10.9 nM.

Regarding `NS(=O)(=O)c1cc(-c2nnc(-c3ccccc3)s2)c(Cl)cc1Cl`, the inhibition constant (Ki) is 13.6 nM. This Ki and that of the compound before are within 1.5-fold of each other.

`NS(=O)(=O)c1cc(NC(=O)Nc2ccccc2)c(Cl)cc1Cl` showed an inhibitory constant (Ki) of 7 nM.

For `NS(=O)(=O)c1cc(NC(=O)Nc2ccc(Cl)cc2)c(Cl)cc1Cl`, the Ki was 7.1 nM.

`NS(=O)(=O)c1ccc(NC(=O)Nc2cc(S(N)(=O)=O)c(Cl)cc2Cl)cc1` returned an inhibition constant Ki of 15.8 nM. Compared with the last compound, the Ki is about 2.2-fold higher.

With `NS(=O)(=O)c1cc(NC(=O)NOCc2ccccc2)c(Cl)cc1Cl`, affinity was put at a Ki of 18.9 nM.

As to `NS(=O)(=O)c1cc(NC(=O)NNC(=O)c2ccccc2)c(Cl)cc1Cl`, the affinity, expressed as Ki, was 12.5 nM.

`NS(=O)(=O)c1cc(NC(=O)NCCCN2CCOCC2)c(Cl)cc1Cl` displayed a Ki of 38 nM.

For `NS(=O)(=O)c1cc(NC(=O)N2CCN(Cc3ccc4c(c3)OCO4)CC2)c(Cl)cc1Cl`, the Ki amounted to 76 nM.

Take `NS(=O)(=O)c1cc(C(=O)NNC(=S)Nc2ccccc2)c(Cl)cc1Cl`: the Ki is 31 nM.

Regarding `NS(=O)(=O)c1cc(C(=O)NNC(=S)Nc2ccc(Cl)cc2)c(Cl)cc1Cl`, the affinity corresponds to a Ki of 27 nM.

Consider `Cc1ccc(S(=O)(=O)NC(=O)NNC(=O)c2cc(S(N)(=O)=O)c(Cl)cc2Cl)cc1`, for which the Ki was found to be 15.3 nM.

`NS(=O)(=O)c1cc(C(=O)NNC(=O)c2ccco2)c(Cl)cc1Cl` had a Ki of 3.9 nM.

Turning to `NS(=O)(=O)c1cc(C(=O)NNC(=O)c2ccccc2)c(Cl)cc1Cl`, the affinity, expressed as Ki, was 10.2 nM. Against the preceding compound, the Ki is about 2.6-fold higher.

`Cc1ccc(C(=O)NNC(=O)c2cc(S(N)(=O)=O)c(Cl)cc2Cl)cc1`: the affinity, expressed as Ki, was 5.5 nM.

The target in the next assay is Carbonic anhydrase 1 (Homo sapiens, UniProt P00915).
Chain of Carbonic anhydrase 1 (P00915 whole entry): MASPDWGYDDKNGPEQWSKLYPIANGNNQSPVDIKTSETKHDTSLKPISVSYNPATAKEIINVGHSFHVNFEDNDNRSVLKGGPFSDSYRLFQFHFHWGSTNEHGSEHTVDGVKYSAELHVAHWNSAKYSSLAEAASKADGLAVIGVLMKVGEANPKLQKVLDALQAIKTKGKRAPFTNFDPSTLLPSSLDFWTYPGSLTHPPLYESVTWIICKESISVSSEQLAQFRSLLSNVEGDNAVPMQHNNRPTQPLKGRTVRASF
`Cc1nnc(-c2cc(S(N)(=O)=O)c(Cl)cc2Cl)o1` returned an inhibition constant (Ki) of 718 nM.

For another assay, the target named is Carbonic anhydrase 12 (Homo sapiens, UniProt O43570).
Chain of Carbonic anhydrase 12 (O43570 whole entry): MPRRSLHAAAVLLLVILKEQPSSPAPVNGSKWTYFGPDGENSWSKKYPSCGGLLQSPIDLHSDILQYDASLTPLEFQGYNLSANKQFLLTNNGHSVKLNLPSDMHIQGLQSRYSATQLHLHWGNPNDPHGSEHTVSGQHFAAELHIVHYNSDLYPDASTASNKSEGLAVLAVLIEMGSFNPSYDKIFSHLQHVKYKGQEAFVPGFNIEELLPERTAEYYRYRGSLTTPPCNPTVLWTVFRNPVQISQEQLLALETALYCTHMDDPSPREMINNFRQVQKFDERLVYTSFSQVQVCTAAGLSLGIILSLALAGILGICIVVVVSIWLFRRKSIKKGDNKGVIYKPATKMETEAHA
Compound `Cc1nnc(-c2cc(S(N)(=O)=O)c(Cl)cc2Cl)o1` came in with a Ki of 6.3 nM. This lies in the single-digit nanomolar range.
